Earlier results as cited in patent publication US20060160157A1, “Method, compositions and classification for tumor diagnostics and treatment” (priority 2005, published 2006).

Legend:
[1] = pH change 7.5 to 4.0
GRP-R = GRP-R (Homo sapiens, UniProt P30550); conditions: radiolabeled bombesin as radioligand
GRP-R, sequence (P30550 whole entry, species assumed): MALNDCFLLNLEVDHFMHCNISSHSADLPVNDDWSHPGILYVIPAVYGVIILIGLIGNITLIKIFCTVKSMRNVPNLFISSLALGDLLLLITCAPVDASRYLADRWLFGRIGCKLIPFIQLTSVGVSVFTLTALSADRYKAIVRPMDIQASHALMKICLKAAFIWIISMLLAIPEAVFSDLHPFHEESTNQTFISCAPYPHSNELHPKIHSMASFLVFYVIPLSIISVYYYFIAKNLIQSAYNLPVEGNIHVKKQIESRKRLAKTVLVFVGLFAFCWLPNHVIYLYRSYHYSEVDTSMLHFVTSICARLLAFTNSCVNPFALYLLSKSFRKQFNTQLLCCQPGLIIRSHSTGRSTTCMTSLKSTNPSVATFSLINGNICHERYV

change in the kd rate constant (dissociation) [1] | GRP-R binding selectivity (rank order of affinity) (GRP-R) | Substance | change in the ka rate constant (association) [1] [times]
1,600 times | – | growth hormone | 1.7
– | GRP >bombesin> neuromedin | neuromedin | –
